Tests used:
α-D-glucuronidase = experiment: effect of calcium salt, protein and sodium chloride on the enzymatic reaction of α-D-glucuronidase; assay type: biochemical, Fucophilus fucoidanolyticus strain SI-1234; details: for activation of α-D-glucuronidase (relative activity versus concentration in the reaction system): result in words
Description: (§1) Then, the relationship between the relative activity of the α-D-glucuronidase or the endo-α-L-fucosidase of the present invention and the concentration of calcium chloride contained in the reaction system was examined.
(§2) Then, the relationship between the relative activity of the α-D-glucuronidase or the endo-α-L-fucosidase of the present invention and the concentration of bovine serum albumin contained in the reaction system was examined.
(§3) Then, the relationship between the relative activity of the α-D-glucuronidase or the endo-α-L-fucosidase of the present invention and the concentration of sodium chloride contained in the reaction system was examined.

endo-α-L-fucosidase = experiment: effect of calcium salt, protein and sodium chloride on the enzymatic reaction of endo-α-L-fucosidase; assay type: biochemical, Fucophilus fucoidanolyticus strain SI-1234; details: for activation of endo-α-L-fucosidase (relative activity versus concentration in the reaction system): result in words
Description: as §1, §2, §3

[1] = oligosaccharide having a low molecular weight as substrate
[2] = sulfated glucuronofucan having a high molecular weight as substrate

| Compound | activation of α-D-glucuronidase (relative activity versus concentration in the reaction system) (α-D-glucuronidase) | activation of endo-α-L-fucosidase (relative activity versus concentration in the reaction system) (endo-α-L-fucosidase) | activation of α-D-glucuronidase (α-D-glucuronidase; [1]) | activation of α-D-glucuronidase (α-D-glucuronidase; [2]) | activation of endo-α-L-fucosidase (endo-α-L-fucosidase; [1]) | activation of endo-α-L-fucosidase (endo-α-L-fucosidase; [2]) |
| --- | --- | --- | --- | --- | --- | --- |
| [Ca+2].[Cl-].[Cl-] [calcium chloride] | activated | activated | – | – | – | – |
| [Cl-].[Na+] [sodium chloride] | – | – | not activated | activates | not activated | activates |
| bovine serum albumin: protein added to the reaction system as enzyme activator | activated | activated | – | – | – | – |
